The test deals with Mice. As to the kind of experiment: Acute cerebral ischemia hypoxia survival time of mice, different formulations (Example 1). As to conditions: 800 mg/kg per day oral, 7 days, sacrificed 1 h after last dosing. It counts as in vivo. The method, then: The acute cerebral ischemia hypoxia survival time of the mice through different formulations is provided.
Dosage: 800 mg/kg per day per group. The test sample is prepared by redistilled water and drenched into the stomach through the mouth for seven days continuously.
Testing Method: The mice are respectively sacrificed one hour after the last stomach drenching, and the time from the sacrifice of the mice to the time when they stop gasping through mouths is recorded with a second counter.

Take `NC(=O)NCCC[C@H](N)C(=O)O` [Sample 1, Citrulline]: the “Gasp Stopping Time” value was determined as 12.6 s.

The record behind these values is patent US9192638B2, “Preparation comprising amino acids and plants and its activity in the alcohol detoxification” (Modutech S.A., priority 2009, dated 2015).
